biological target: T1, gastrin (CCK2) receptors (Rattus norvegicus, UniProt P30553); assay: immature rat stomach assay for gastrin (CCK2) antagonist activity (pentagastrin-stimulated acid secretion); conditions: isolated immature rat stomach, antagonism of pentagastrin dose-response curves, 60 min incubation; tested as N-methyl D-glucamine salts
T1 construct: The stomach was excised and flushed with ca. 1 ml of unbuffered physiological saline solution; from tissue; host or cells: isolated whole stomach of immature rats (33-50 g, ca. 21 days old)
T1 sequence (P30553 1-452): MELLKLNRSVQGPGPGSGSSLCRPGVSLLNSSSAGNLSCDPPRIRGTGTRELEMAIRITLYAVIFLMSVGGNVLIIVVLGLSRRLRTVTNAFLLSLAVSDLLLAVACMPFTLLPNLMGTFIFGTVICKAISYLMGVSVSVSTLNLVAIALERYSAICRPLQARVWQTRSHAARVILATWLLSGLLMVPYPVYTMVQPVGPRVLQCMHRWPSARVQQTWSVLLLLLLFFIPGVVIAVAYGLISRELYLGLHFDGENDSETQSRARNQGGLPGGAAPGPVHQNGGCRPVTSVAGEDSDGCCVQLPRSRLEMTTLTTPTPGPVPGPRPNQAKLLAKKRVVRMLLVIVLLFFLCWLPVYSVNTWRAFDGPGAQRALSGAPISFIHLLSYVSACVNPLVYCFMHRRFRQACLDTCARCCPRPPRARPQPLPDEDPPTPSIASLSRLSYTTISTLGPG
Method: The compounds of the examples were tested for gastrin (CCK2) antagonist activity in an immature rat stomach assay. The procedure was as follows:
The oesophagus of immature rats (33-50 g, ca. 21 days old) was ligated at the level of the cardiac sphincter and the duodenal sphincter was cannulated. The stomach was excised and flushed with ca. 1 ml of unbuffered physiological saline solution. The fundus was punctured and cannulated. A further 4-5 ml of unbuffered solution was flushed through the stomach to ensure the preparation was not leaking. The stomach was lowered into a jacketed organ bath containing 40 ml of buffered solution containing 3×10^−8 M 5-methylfurmethide, maintained at 37° and gassed vigorously with 95% O2/5% CO2. The stomach was continuously perfused at a rate of 1 ml min^−1 with unbuffered solution gassed with 100% O2 with the perfusate passing over an internally referenced pH-electrode fixed 12 cm above the stomach.
After 120 min of stabilisation the drugs were added directly to the serosal solution in the organ bath and after a further 60 min cumulative pentagastrin dose-response curves were started. Changes in acid secretion were monitored and the curves analysed according to Black et al, Br. J. Pharmacol., 1985, 86, 581.

Compound | Rat stomach pKB
O=C(O)c1cccc(NC(=O)c2nn(C3C4CC5CC(C4)CC3C5)nc2COC23CC4CC(CC(C4)C2)C3)c1 (centres unmarked) [Example 16, 3-[[2-Adamantan-2-yl-5-(Adamantan-1-yloxymethyl)-2H-[1,2,3]triazole-4-carbonyl]-amino]-benzoic acid.] | 6.82 ± 0.17
O=C(O)c1cccc(NC(=O)c2nn[nH]c2COC23CC4CC(CC(C4)C2)C3)c1 [Example 24, 3-[[5-(Adamantan-1-yloxymethyl)-1/2/3H-[1,2,3]triazole-4-carbonyl]-amino]-benzoic acid] | 5.65 ± 0.33
Nc1ccccc1-n1nc(COC23CC4CC(CC(C4)C2)C3)c(C(=O)Nc2cccc(C(=O)O)c2)n1 [Example 27] | 6.67 ± 0.17
O=C(O)c1cccc(NC(=O)c2nn(C3CC4CCC3C4)nc2COC23CC4CC(CC(C4)C2)C3)c1 (stereo not drawn) [Example 11, Endo-3-[[5-(Adamantan-1-yloxymethyl)-2-bicyclo[2.2.1]hept-2-yl-2H-[1,2,3]triazole-4-carbonyl]-amino]-benzoic acid] | 8.37 ± 0.22

same assay, conditions: isolated immature rat stomach, antagonism of pentagastrin dose-response curves, 60 min incubation; tested as N-methyl D-glucamine salts; read-out: Rat stomach pKB (converted)

Compound | Kb
O=C(O)c1cccc(NC(=O)c2nn(-c3ccccc3Br)nc2COC23CC4CC(CC(C4)C2)C3)c1 [Example 13, 3-[[5-(Adamantan-1-yloxymethyl)-2-(2-bromo-phenyl)-2H-[1,2,3]triazole-4-carbonyl]-amino]-benzoic acid] | 0.0955 µM
O=C(O)c1cccc(NC(=O)c2nn(-c3c(Cl)cccc3Cl)nc2COC2CCCCC2)c1 [Example 30, 3-{[5-Cyclohexyloxymethyl-2-(2,6-dichloro-phenyl)-2H-[1,2,3]triazole-4-carbonyl]-amino}-benzoic acid] | 0.275 µM
O=C(O)c1cccc(NC(=O)c2nn(-c3c(Cl)cccc3Cl)nc2COC2CCCCCC2)c1 [Example 29, 3-{[5-Cycloheptyloxymethyl-2-(2,6-dichloro-phenyl)-2H-[1,2,3]triazole-4-carbonyl]-amino}-benzoic acid] | 0.0977 µM
O=C(O)c1cccc(NC(=O)c2nn(-c3ccccc3[N+](=O)[O-])nc2COC23CC4CC(CC(C4)C2)C3)c1 [Example 26, 3-[[5-(Adamantan-1-yloxymethyl)-2-(2-nitro-phenyl)-2H-[1,2,3]triazole-4-carbonyl]-amino]-benzoic acid] | 0.38 µM
CC(C)(C)n1nc(COC23CC4CC(CC(C4)C2)C3)c(C(=O)Nc2cccc(C(=O)O)c2)n1 [Example 9, 3-[[5-(Adamantan-1-yloxymethyl)-2-tert-butyl-2H-[1,2,3]triazole-4-carbonyl]-amino]-benzoic acid] | 0.631 µM
Cc1ccccc1-n1nc(COC23CC4CC(CC(C4)C2)C3)c(C(=O)Nc2cccc(C(=O)O)c2)n1 [Example 1, 3-[[5-(Adamantan-1-yloxymethyl)-2-(2-methyl-phenyl)-2H-[1,2,3]triazole-4-carbonyl]-amino]-benzoic acid] | 0.0437 µM
Cc1ccc(-n2nc(COC34CC5CC(CC(C5)C3)C4)c(C(=O)Nc3cccc(C(=O)O)c3)n2)c(C)c1 [Example 25, 3-[[5-(Adamantan-1-yloxymethyl)-2-(2,4-dimethyl-phenyl)-2H-[1,2,3]triazole-4-carbonyl]-amino]-benzoic acid] | 0.316 µM
O=C(O)c1cccc(NC(=O)c2c(COC34CC5CC(CC(C5)C3)C4)nnn2C2CCCCCC2)c1 [Example 32, 3-{[5-(Adamantan-1-yloxymethyl)-3-cycloheptyl-3H-[1,2,3]triazole-4-carbonyl]-amino}-benzoic acid] | 3.72 µM
O=C(O)c1cccc(NC(=O)c2nn(C3CCCCC3)nc2COC23CC4CC(CC(C4)C2)C3)c1 [Example 2, 3-[[5-(Adamantan-1-yloxymethyl)-2-cyclohexyl-2H-[1,2,3]triazole-4-carbonyl]-amino]-benzoic acid] | 0.0479 µM
O=C(O)Cc1cccc(NC(=O)c2nn(-c3c(Cl)cccc3Cl)nc2COC23CC4CC(CC(C4)C2)C3)c1 [Example 31, (3-{[5-(Adamantan-1-yloxymethyl)-2-(2,6-dichloro-phenyl)-2H-[1,2,3]triazole-4-carbonyl]-amino}-phenyl)acetic acid] | 2.82 µM
O=C(O)c1cccc(NC(=O)c2nn(-c3c(Cl)cccc3Cl)nc2COC23CC4CC(CC(C4)C2)C3)c1 [Example 3, 3-[[5-(Adamantan-1-yloxymethyl)-2-(2,6-dichlorophenyl)-2H-[1,2,3]triazole-4-carbonyl]-amino]-benzoic acid] | 0.0132 µM
O=C(O)c1cccc(NC(=O)c2nn(-c3ccccc3C(F)(F)F)nc2COC23CC4CC(CC(C4)C2)C3)c1 [Example 7, 3-[[5-(Adamantan-1-yloxymethyl)-2-(2-trifluoromethyl-phenyl)-2H-[1,2,3]triazole-4-carbonyl]-amino]-benzoic acid] | 0.0676 µM
O=C(O)c1cccc(NC(=O)c2nn(-c3c(Cl)cc(Cl)cc3Cl)nc2COC23CC4CC(CC(C4)C2)C3)c1 [Example 4, 3-[[5-(Adamantan-1-yloxymethyl)-2-(2,4,6-trichlorophenyl)-2H-[1,2,3]triazole-4-carbonyl]-amino]-benzoic acid] | 0.191 µM
O=C(O)c1cccc(NC(=O)c2nn(-c3c(Cl)cccc3Cl)nc2COc2ccccc2)c1 [Example 28, 3-{[2-(2,6-Dichloro-phenyl)-5-phenoxymethyl-2H-[1,2,3]triazole-4-carbonyl]-amino}-benzoic acid] | 1.23 µM
Cc1ccc(C)c(-n2nc(COC34CC5CC(CC(C5)C3)C4)c(C(=O)Nc3cccc(C(=O)O)c3)n2)c1 [Example 22, 3-[[5-(Adamantan-1-yloxymethyl)-2-(2,5-dimethyl-phenyl)-2H-[1,2,3]triazole-4-carbonyl]-amino]-benzoic acid] | 0.282 µM
COc1ccccc1-n1nc(COC23CC4CC(CC(C4)C2)C3)c(C(=O)Nc2cccc(C(=O)O)c2)n1 [Example 10, 3-[[5-(Adamantan-1-yloxymethyl)-2-(2-methoxy-phenyl)-2H-[1,2,3]triazole-4-carbonyl]amino]-benzoic acid] | 0.0417 µM
O=C(O)c1cccc(NC(=O)c2nn(C3CCCCCC3)nc2COC23CC4CC(CC(C4)C2)C3)c1 [Example 15, 3-[[5-(Adamantan-1-yloxymethyl)-2-cycloheptyl-2H-[1,2,3]triazole-4-carbonyl]-amino]-benzoic acid] | 0.0135 µM
Cc1cccc(-n2nc(COC34CC5CC(CC(C5)C3)C4)c(C(=O)Nc3cccc(C(=O)O)c3)n2)c1C [Example 19, 3-[[5-(Adamantan-1-yloxymethyl)-2-(2,3-dimethyl-phenyl)-2H-[1,2,3]triazole-4-carbonyl]-amino]-benzoic acid] | 0.0741 µM
O=C(O)c1cccc(NC(=O)c2nn(-c3cc(Cl)ccc3Cl)nc2COC23CC4CC(CC(C4)C2)C3)c1 [Example 23, 3-[[5-(Adamantan-1-yloxymethyl)-2-(2,5-dichloro-phenyl)-2H-[1,2,3]triazole-4-carbonyl]-amino]-benzoic acid] | 0.151 µM
O=C(O)c1cccc(NC(=O)c2nn(-c3cccc4ccccc34)nc2COC23CC4CC(CC(C4)C2)C3)c1 [Example 18, 3-[[5-(Adamantan-1-yloxymethyl)-2-naphthalen-1-yl-2H-[1,2,3]triazole-4-carbonyl]-amino]-benzoic acid] | 1.51 µM
CC(C)c1ccccc1-n1nc(COC23CC4CC(CC(C4)C2)C3)c(C(=O)Nc2cccc(C(=O)O)c2)n1 [Example 17, 3-[[5-(Adamantan-1-yloxymethyl)-2-(2-isopropyl-phenyl)-2H-[1,2,3]triazole-4-carbonyl]-amino]-benzoic acid] | 0.263 µM
O=C(O)c1cccc(NC(=O)c2nn(-c3ccccc3F)nc2COC23CC4CC(CC(C4)C2)C3)c1 [Example 12, 3-[[5-(Adamantan-1-yloxymethyl)-2-(2-fluoro-phenyl)-2H-[1,2,3]triazole-4-carbonyl]-amino]-benzoic acid] | 0.174 µM
O=C(O)c1cccc(NC(=O)c2nnn(-c3ccccc3Cl)c2COC23CC4CC(CC(C4)C2)C3)c1 [Example 6, 3-[[5-(Adamantan-1-yloxymethyl)-1-(2-chloro-phenyl)-1H-[1,2,3]triazole-4-carbonyl]-amino]-benzoic acid] | 0.0933 µM
CCc1ccccc1-n1nc(COC23CC4CC(CC(C4)C2)C3)c(C(=O)Nc2cccc(C(=O)O)c2)n1 [Example 8, 3-[[5-(Adamantan-1-yloxymethyl)-2-(2-ethyl-phenyl)-2H-[1,2,3]triazole-4-carbonyl]-amino]-benzoic acid] | 0.024 µM
O=C(O)c1cccc(NC(=O)c2nn(-c3ccccc3-c3ccccc3)nc2COC23CC4CC(CC(C4)C2)C3)c1 [Example 21, 3-[[5-(Adamantan-1-yloxymethyl)-2-(biphenyl-2-yl)-2H-[1,2,3]triazole-4-carbonyl]-amino]-benzoic acid] | 0.24 µM

From patent US7105558B2, “Gastrin and cholecystokinin receptor lignads (iv)” (The James Black Foundation Limited, priority 2000, dated 2006)
